According to patent publication US20260091026A1, “METHODS OF TREATING INFLAMMATORY DISEASES” (INTERLINE THERAPEUTICS, INC., priority 2023, published 2026):

Columns and labels:
[1] = tested on: THP1-Dual cells, NF-κB pathway (SEAP); assay: THP-1 Dual cell SEAP assay (L18-MDP stimulated); type: cell-based; conditions: Homo sapiens, 10 ng/mL L18-MDP, 20-24 h, SEAP readout, read-out: IFNγ THP1 IC50
Outline: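 About 25,000 THP1-Dual cells per well were preincubated 30 min with serially diluted compound, then stimulated overnight (20-24 h, 37 °C) with 10 ng/mL L18-MDP (final). NF-κB-driven SEAP in supernatant was read with QUANTI-Blue at OD 620-655 nm after 2 h; % inhibition versus DMSO/L18-MDP wells was fitted by non-linear regression to give IC50.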

RIPK2 (KD)/XIAP (BIR2) = biological target: T1, RIPK2 (KD)/XIAP (BIR2) (Homo sapiens, UniProt O43353); assay: RIPK2-XIAP binding competition PPI assay (TR-FRET); conditions: for Emax: 50 nM of GSK583 = -100% activity, read-out: PPI Amax; for IC50: GST-RIPK2 / His-XIAP (BIR2)-avi, 120 min at 23° C.
T1 construct: made in house; host or cells: baculovirus-infected Sf9 cells
Outline: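 TR-FRET competition between GST-RIPK2 (aa 1-310, 1 nM) and His-XIAP BIR2-avi (aa 152-231, 25 nM), both Sf9-expressed, detected with anti-His-XL665 and anti-GST-Tb in Tris pH 7.5 buffer with MgCl2, DTT and vanadate. Incubation was 120 min at 23 °C; the 665/520 nm ratio was normalized to no inhibitor (0%) and 50 nM GSK583 (−100%).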

T1 sequence (O43353 1-310): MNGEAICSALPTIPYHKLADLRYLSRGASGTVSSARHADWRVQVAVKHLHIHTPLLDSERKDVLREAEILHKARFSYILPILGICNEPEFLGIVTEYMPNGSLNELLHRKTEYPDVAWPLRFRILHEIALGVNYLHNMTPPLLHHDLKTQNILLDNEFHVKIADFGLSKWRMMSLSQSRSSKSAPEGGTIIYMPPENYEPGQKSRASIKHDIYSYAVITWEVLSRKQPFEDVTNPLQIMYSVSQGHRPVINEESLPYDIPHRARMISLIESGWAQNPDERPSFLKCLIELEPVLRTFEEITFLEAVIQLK

Compound	IC50 [1] [nM]	Emax (RIPK2 (KD)/XIAP (BIR2)) [%]	IC50 (RIPK2 (KD)/XIAP (BIR2)) [nM]
COc1cn2ncc(-c3cc(C(=O)N[C@H](C)c4ccccn4)n(C)n3)c2cc1C1(F)CCN(C)CC1 [Example 58, (R)-3-(5-(4-fluoro-1-methylpiperidin-4-yl)-6-methoxypyrazolo[1,5-a]pyridin-3-yl)-1-methyl-N-(1-(pyridin-2-yl)ethyl)-1H-pyrazole-5-carboxamide]	500 to 2500	≥ 80	100 to 1000
COc1cc2ncc(-c3cc(C(=O)N[C@H](C)c4ccn(C)n4)n(C)n3)n2cc1S(=O)(=O)C(C)(C)C [Example 59, (R)-3-(6-(tert-butylsulfonyl)-7-methoxyimidazo[1,2-a]pyridin-3-yl)-1-methyl-N-(1-(1-methyl-1H-pyrazol-3-yl)ethyl)-1H-pyrazole-5-carboxamide]	500 to 2500	≥ 80	100 to 1000
COc1cc2ncc(-c3cc(C(=O)N[C@@H](C)c4ccn(C)n4)n(C)n3)n2cc1S(=O)(=O)C(C)(C)C [Example 60, (S)-3-(6-(tert-butylsulfonyl)-7-methoxyimidazo[1,2-a]pyridin-3-yl)-1-methyl-N-(1-(1-methyl-1H-pyrazol-3-yl)ethyl)-1H-pyrazole-5-carboxamide]	> 2500	≥ 80	> 1000
CC[C@@H](NC(=O)c1cc(-c2cnc3cc(OC)c(S(=O)(=O)C(C)(C)C)cn23)nn1C)c1ccccn1 [Example 61, (R)-3-(6-(tert-butylsulfonyl)-7-methoxyimidazo[1,2-a]pyridin-3-yl)-1-methyl-N-(1-(pyridin-2-yl)propyl)-1H-pyrazole-5-carboxamide]	> 2500	≥ 80	100 to 1000
COc1cc2ncc(-c3cc(C(=O)N[C@@H](c4ccccn4)C(F)(F)F)n(C)n3)n2cc1S(=O)(=O)C(C)(C)C [Example 62, (S)-3-(6-(tert-butylsulfonyl)-7-methoxyimidazo[1,2-a]pyridin-3-yl)-1-methyl-N-(2,2,2-trifluoro-1-(pyridin-2-yl)ethyl)-1H-pyrazole-5-carboxamide]	500 to 2500	≥ 80	100 to 1000
COc1cc2ncc(-c3cc(C(=O)N[C@@H]4CCc5cccnc54)n(C)n3)n2cc1S(=O)(=O)C(C)(C)C [Example 63, (R)-3-(6-(tert-butylsulfonyl)-7-methoxyimidazo[1,2-a]pyridin-3-yl)-N-(6,7-dihydro-5H-cyclopenta[b]pyridin-7-yl)-1-methyl-1H-pyrazole-5-carboxamide]	> 2500	≥ 80	100 to 1000
COc1cc2ncc(-c3cc(C(=O)N[C@H]4CCc5cccnc54)n(C)n3)n2cc1S(=O)(=O)C(C)(C)C [Example 64, (S)-3-(6-(tert-butylsulfonyl)-7-methoxyimidazo[1,2-a]pyridin-3-yl)-N-(6,7-dihydro-5H-cyclopenta[b]pyridin-7-yl)-1-methyl-1H-pyrazole-5-carboxamide]	500 to 2500	≥ 80	10 to 100
COc1cc2ncc(-c3cc(C(=O)NCc4ncccc4C)n(C)n3)n2cc1S(=O)(=O)C(C)(C)C [Example 65, 3-(6-(tert-butylsulfonyl)-7-methoxyimidazo[1,2-a]pyridin-3-yl)-1-methyl-N-((3-methylpyridin-2-yl)methyl)-1H-pyrazole-5-carboxamide]	> 2500	≥ 80	100 to 1000
COc1cc2ncc(-c3cc(C(=O)NCc4ncccn4)n(C)n3)n2cc1S(=O)(=O)C(C)(C)C [Example 66, 3-(6-(tert-butylsulfonyl)-7-methoxyimidazo[1,2-a]pyridin-3-yl)-1-methyl-N-(pyrimidin-2-ylmethyl)-1H-pyrazole-5-carboxamide]	500 to 2500	≥ 80	100 to 1000
COc1cc2ncc(-c3cc(C(=O)NCc4cnccn4)n(C)n3)n2cc1S(=O)(=O)C(C)(C)C [Example 67, 3-(6-(tert-butylsulfonyl)-7-methoxyimidazo[1,2-a]pyridin-3-yl)-1-methyl-N-(pyrazin-2-ylmethyl)-1H-pyrazole-5-carboxamide]	> 2500	55 to 80	> 1000
COc1cc2ncc(-c3cc(C(=O)NCc4ccncn4)n(C)n3)n2cc1S(=O)(=O)C(C)(C)C [Example 68, 3-(6-(tert-butylsulfonyl)-7-methoxyimidazo[1,2-a]pyridin-3-yl)-1-methyl-N-(pyrimidin-4-ylmethyl)-1H-pyrazole-5-carboxamide]	> 2500	≤ 30	> 1000
COc1cc2ncc(-c3cc(C(=O)NCc4cccnn4)n(C)n3)n2cc1S(=O)(=O)C(C)(C)C [Example 69, 3-(6-(tert-butylsulfonyl)-7-methoxyimidazo[1,2-a]pyridin-3-yl)-1-methyl-N-(pyridazin-3-ylmethyl)-1H-pyrazole-5-carboxamide]	> 2500	≤ 30	> 1000
COc1cc2ncc(-c3cc(C(=O)NCc4ccnn4C)n(C)n3)n2cc1S(=O)(=O)C(C)(C)C [Example 70, 3-(6-(tert-butylsulfonyl)-7-methoxyimidazo[1,2-a]pyridin-3-yl)-1-methyl-N-((1-methyl-1H-pyrazol-5-yl)methyl)-1H-pyrazole-5-carboxamide]	> 2500	30 to 55	> 1000
COc1cc2ncc(-c3cc(C(=O)NCc4ncccc4Cl)n(C)n3)n2cc1S(=O)(=O)C(C)(C)C [Example 71, 3-(6-(tert-butylsulfonyl)-7-methoxyimidazo[1,2-a]pyridin-3-yl)-N-((3-chloropyridin-2-yl)methyl)-1-methyl-1H-pyrazole-5-carboxamide]	500 to 2500	≥ 80	10 to 100
COc1cc2ncc(-c3cc(C(=O)NCc4ncccc4OC)n(C)n3)n2cc1S(=O)(=O)C(C)(C)C [Example 72, 3-(6-(tert-butylsulfonyl)-7-methoxyimidazo[1,2-a]pyridin-3-yl)-N-((3-methoxypyridin-2-yl)methyl)-1-methyl-1H-pyrazole-5-carboxamide]	> 2500	≥ 80	100 to 1000
COc1ccccc1CNC(=O)c1cc(-c2cnc3cc(OC)c(S(=O)(=O)C(C)(C)C)cn23)nn1C [Example 73, 3-(6-(tert-butylsulfonyl)-7-methoxyimidazo[1,2-a]pyridin-3-yl)-N-(2-methoxybenzyl)-1-methyl-1H-pyrazole-5-carboxamide]	500 to 2500	≥ 80	10 to 100
COc1cc2ncc(-c3cc(C(=O)NCc4ccccc4CO)n(C)n3)n2cc1S(=O)(=O)C(C)(C)C [Example 74, 3-(6-(tert-butylsulfonyl)-7-methoxyimidazo[1,2-a]pyridin-3-yl)-N-(2-(hydroxymethyl)benzyl)-1-methyl-1H-pyrazole-5-carboxamide]	500 to 2500	≥ 80	10 to 100
COc1ccccc1[C@@H](C)NC(=O)c1cc(-c2cnc3cc(OCCO)c(S(=O)(=O)C(C)(C)C)cn23)nn1C [Example 75, (R)-3-(6-(tert-butylsulfonyl)-7-(2-hydroxyethoxy)imidazo[1,2-a]pyridin-3-yl)-N-(1-(2-methoxyphenyl)ethyl)-1-methyl-1H-pyrazole-5-carboxamide]	500 to 2500	≥ 80	10 to 100
COc1cc2ncc(-c3cc(C(=O)NCc4nccn4C)n(C)n3)n2cc1S(=O)(=O)C(C)(C)C [Example 76, 3-(6-(tert-butylsulfonyl)-7-methoxyimidazo[1,2-a]pyridin-3-yl)-1-methyl-N-((1-methyl-1H-imidazol-2-yl)methyl)-1H-pyrazole-5-carboxamide]	> 2500	≤ 30	> 1000
COc1cc2ncc(-c3cc(C(=O)NCc4noc(C)n4)n(C)n3)n2cc1S(=O)(=O)C(C)(C)C [Example 77, 3-(6-(tert-butylsulfonyl)-7-methoxyimidazo[1,2-a]pyridin-3-yl)-1-methyl-N-((5-methyl-1,2,4-oxadiazol-3-yl)methyl)-1H-pyrazole-5-carboxamide]	> 2500	≥ 80	100 to 1000
COc1cc2ncc(-c3cc(C(=O)NCc4nc(C)no4)n(C)n3)n2cc1S(=O)(=O)C(C)(C)C [Example 78, 3-(6-(tert-butylsulfonyl)-7-methoxyimidazo[1,2-a]pyridin-3-yl)-1-methyl-N-((3-methyl-1,2,4-oxadiazol-5-yl)methyl)-1H-pyrazole-5-carboxamide]	> 2500	55 to 80	> 1000
COc1cc2ncc(-c3cc(C(=O)NCc4nccc(C)n4)n(C)n3)n2cc1S(=O)(=O)C(C)(C)C [Example 79, 3-(6-(tert-butylsulfonyl)-7-methoxyimidazo[1,2-a]pyridin-3-yl)-1-methyl-N-((4-methylpyrimidin-2-yl)methyl)-1H-pyrazole-5-carboxamide]	> 2500	≥ 80	100 to 1000
CCn1nc(-c2cnc3cc(OC)c(S(=O)(=O)C(C)(C)C)cn23)cc1C(=O)NCc1ncccn1 [Example 80, 3-(6-(tert-butylsulfonyl)-7-methoxyimidazo[1,2-a]pyridin-3-yl)-1-ethyl-N-(pyrimidin-2-ylmethyl)-1H-pyrazole-5-carboxamide]	100 to 500	≥ 80	10 to 100
